Laboratory results from patent US9937115B2, “Oral care compositions with improved flavor” (priority 2010, dated 2018).
Structures can show the parent of a compound that is named as a salt. Where two headings read alike, the source gives them in different places.

Legend:
TRPA1 receptor [1] = target: T1, TRPA1 receptor (Homo sapiens, UniProt O75762); test: cell-based; parameters: activation: dose or concentration left out as unconfirmed; conditions: for activation at 100 µM / activation: HEK293; for activation at 100 µM: read-out: TRPA1 Direct addition; for activation: pre-incubation, read-out: TRPA1 Pre-incubation;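 on TRPA1 Pre-incubation: values above 100 mean more active than the control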
T1 construct: expressed in transfected cells; host or cells: HEK cell line
T1 sequence (O75762 whole entry): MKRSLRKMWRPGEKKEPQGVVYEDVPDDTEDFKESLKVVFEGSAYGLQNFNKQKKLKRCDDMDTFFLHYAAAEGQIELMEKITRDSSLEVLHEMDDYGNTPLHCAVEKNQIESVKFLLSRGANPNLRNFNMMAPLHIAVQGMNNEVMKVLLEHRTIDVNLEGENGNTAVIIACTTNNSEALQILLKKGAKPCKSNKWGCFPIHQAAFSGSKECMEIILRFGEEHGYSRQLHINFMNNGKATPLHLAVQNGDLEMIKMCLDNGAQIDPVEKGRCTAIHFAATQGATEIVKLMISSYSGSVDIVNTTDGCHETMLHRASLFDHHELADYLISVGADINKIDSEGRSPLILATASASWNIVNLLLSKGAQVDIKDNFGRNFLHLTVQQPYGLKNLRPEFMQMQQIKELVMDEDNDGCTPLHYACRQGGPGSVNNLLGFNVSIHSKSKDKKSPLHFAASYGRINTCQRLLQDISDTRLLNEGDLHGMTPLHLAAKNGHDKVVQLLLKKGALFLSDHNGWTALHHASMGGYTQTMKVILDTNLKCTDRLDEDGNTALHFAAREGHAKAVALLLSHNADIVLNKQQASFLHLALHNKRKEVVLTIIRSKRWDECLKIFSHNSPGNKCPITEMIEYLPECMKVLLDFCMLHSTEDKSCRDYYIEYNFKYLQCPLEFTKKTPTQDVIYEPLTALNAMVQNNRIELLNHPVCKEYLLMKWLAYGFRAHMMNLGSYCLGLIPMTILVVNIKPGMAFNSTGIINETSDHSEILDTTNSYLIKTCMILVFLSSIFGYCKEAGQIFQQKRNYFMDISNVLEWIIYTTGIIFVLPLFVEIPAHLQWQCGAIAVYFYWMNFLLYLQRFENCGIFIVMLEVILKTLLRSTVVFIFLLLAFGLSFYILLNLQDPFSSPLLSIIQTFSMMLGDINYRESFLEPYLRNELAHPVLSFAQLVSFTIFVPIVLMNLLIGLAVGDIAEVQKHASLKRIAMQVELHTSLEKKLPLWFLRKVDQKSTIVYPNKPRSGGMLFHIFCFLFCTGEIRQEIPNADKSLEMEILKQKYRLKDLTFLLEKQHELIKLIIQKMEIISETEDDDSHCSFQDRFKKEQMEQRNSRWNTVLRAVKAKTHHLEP
In short: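 HEK cells expressing TRPA1 were treated with test compounds dissolved in DMSO at 100 micromolar, with allyl isothiocyanate as positive control. Agonism was read on a FLIPR as calcium-dye fluorescence counts above background. A TRPA1 activator was defined as giving at least 1000 counts above background at 1 mM.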

TRPA1 receptor [2] = target: T1, TRPA1 receptor; type: cell-based; conditions: percentage of the control (allyl isothiocyanate) calcium count, material dissolved in DMSO at 100 micromolar, HEK cells with TRPA1
[3] = percentage of the control (allyl isothiocyanate) calcium count, material dissolved in DMSO at 100 micromolar, HEK cells with TRPA1, direct addition
[4] = percentage of the control (allyl isothiocyanate) calcium count, material dissolved in DMSO at 100 micromolar, HEK cells with TRPA1

Compound	TRPA1 Direct addition (TRPA1 receptor [1]; [3])	TRPA1 Pre-incubation (TRPA1 receptor [2])	activation at 100 µM (TRPA1 receptor [1]; [3])	activation (TRPA1 receptor [1]; [4])	other results
2-phenyl propyl tetrahydrofuran	−0.15%	108.49%	–	–	–
4-Ethylguaiacol	55.61%	53.53%	–	–	–
C=CC(C)(O)CCC=C(C)CC (mixture of isomers) [Ethyl Linalool]	−0.1%	63.35%	–	–	–
CC(=O)O[C@@H]1C[C@H](C)CC[C@H]1C(C)C (racemic) [DL-Menthyl Acetate]	−16.09%	43.32%	–	–	–
CC(C)=CC1CC(C)CCO1 (racemic) [Rose Oxide Racemic]	−6.68%	80.14%	–	–	–
COc1ccc(CC(C)=O)cc1 [1-(P-Methoxyphenyl)-2-Propanone]	0.49%	77.63%	–	–	–
CC(=O)c1nccs1 [2-Aceylthiazole]	−1.29%	57.82%	–	–	–
CCC1OC(C)=C(O)C1=O (stereo not drawn) [2-Ethyl-4-Hydroxy-5-Methyl-3(2) Furanone]	−1.06%	78.56%	–	–	–
CCc1nc(C)cs1 [2-Ethyl-4-Methythiazole]	−1.38%	62.39%	–	–	–
CCC(C)C=O (stereo not drawn) [2-Methylbutraldehyde]	81.04%	35.61%	–	–	–
Cc1ccc(C=O)c(O)c1 [2_Hydroxy-4-Methyl Benzaldehyde]	0.4%	68.24%	–	–	–
CCC=CCCOC(=O)CC(C)C [3-Hexenyl-3-Methylbutanoate]	−1.61%	88.62%	–	–	–
CC(=O)CCc1ccc(O)cc1 [4-P-hydroxyphenyl-2-butanone]	0.2%	63.07%	–	–	–
Cc1nc(C)c(C)s1 [,2,4,5-Trimethythiazole]	−1.43%	64.86%	–	–	–
COc1ccc(C(C)=O)cc1 [Acetanisole]	0.15%	83.69%	–	–	–
C=CCCC(=O)/C=C/C1C(C)=CCCC1(C)C (stereo not drawn) [Allyl Alpha-Ionone]	0.55%	64.99%	–	–	–
C/C=C\C(=O)C1C(C)=CCCC1(C)C (stereo not drawn) [Alpha-Damascone]	−2.88%	96.58%	–	–	–
CC(=O)/C=C/C1C(C)=CCCC1(C)C (stereo not drawn) [Alpha-Ionone]	−0.9%	111.19%	–	–	–
C/C(C=O)=C\c1ccccc1 [Alpha-Methyl-Trans-Cinnamaldehyde]	37.95%	72.88%	–	–	–
CCCC(=O)OCc1ccc(OC)cc1 [Anisyl butyrate]	−0.03%	112.61%	–	–	–

Compound	TRPA1 Direct addition (TRPA1 receptor [1]; [3])	TRPA1 Pre-incubation (TRPA1 receptor [2])	activation at 100 µM (TRPA1 receptor [1]; [3])	activation (TRPA1 receptor [1]; [4])	other results
CC(=O)/C=C/C1=C(C)CCCC1(C)C [Beta Ionone]	−2.88%	75.35%	–	–	–
CC1=C(/C=C/C(C)O)C(C)(C)CCC1 (stereo not drawn) [Beta-ionol]	−0.01%	114.23%	–	–	–
CCCCOC(=O)C(C)OC(=O)CCC (stereo not drawn) [Butyl Butyryllactate]	−1.54%	39.69%	–	–	–
C=C(C)C1CC=C(C)C(OC(=O)CC)C1 (stereo not drawn) [Carvyl Propionate]	−0.57%	105.07%	–	–	–
CC(C)=CCCC(C)CCO (stereo not drawn) [Cironellol]	−1.03%	51.22%	–	–	–
CC(=O)CCC1C(C)=CCCC1(C)C (stereo not drawn) [Dihydro-alpha-ionone]	0.11%	108.18%	–	–	–
CC1=C(CCC(C)O)C(C)(C)CCC1 (stereo not drawn) [Dihydro-beta-ionol]	−0.33%	97.15%	–	–	–
CCCc1ccc(O)c(OC)c1 [Dihydroeugenol]	0.07%	103.71%	–	–	–
CCOC(=O)C1OC1(C)c1ccccc1 (stereo not drawn) [Ethyl 3-Methyl-3-Phenylglycidate]	23.6%	77.42%	–	–	–
CCOC(=O)c1ccccc1N [Ethyl Anthrailate]	39.71%	61.95%	–	–	–
CCOC(=O)/C=C/c1ccccc1 [Ethyl Cinnemate]	0.45%	70.82%	–	–	–
CCOC(=O)CSC [Ethyl Methylthio Acetate]	−0.06%	55.69%	–	–	–
CCOC(=O)C1OC1c1ccccc1 (stereo not drawn) [Ethyl-3-Phenylglycinate]	12.13%	54.22%	–	–	–
C=C/C(C)=C/C/C=C(\C)CCC=C(C)C [Farmesene]	−0.32%	90.8%	–	–	–
O=S(=O)([O-])NC1CCCCC1.[Na+] [Sodium Cyclamate]	–	–	–	–	TRPA1 Direct addition (TRPA1 receptor [1]): −4.07%; TRPA1 Pre-incubation (TRPA1 receptor [1]): 48.66%
CC1=CCC(=C(C)C)CC1 [Terpinolene]	–	–	-17.2%	76.2%	–
CC/C=C/C=C/C=O [Trans,trans-2,4-Heptadienal]	–	–	119%	-3.68%	–
CCC/C=C/COC(C)=O [Trans-2-Hexenyl Acetate]	–	–	-0.32%	68.7%	–
CCCCCC/C=C/CO [Trans-2-Nonen-1-ol]	–	–	-0.49%	115%	–
CCCCCC/C=C/C=O [Trans-2-Nonenal]	–	–	123%	23.3%	–

Compound	TRPA1 Direct addition (TRPA1 receptor [1]; [3])	TRPA1 Pre-incubation (TRPA1 receptor [2])	activation at 100 µM (TRPA1 receptor [1]; [3])	activation (TRPA1 receptor [1]; [4])	other results
COc1cc(/C=C/C(=O)O)ccc1O [Trans-Ferulic Acid]	–	–	-2.53%	85.6%	–
CC(=O)OCC(COC(C)=O)OC(C)=O [Triacetin]	–	–	-17.1%	79.3%	–
CCOC(=O)CC(O)(CC(=O)OCC)C(=O)OCC [Triethyl Citrate]	–	–	-9.43%	82.2%	–
CCCCCCCCCCC(=O)O [Undecanoic Acid]	–	–	-14.6%	24.7%	–
CC(=O)[O-].CC(=O)[O-].[Zn+2] [Zinc Acetate]	–	–	–	–	TRPA1 Direct addition (TRPA1 receptor [1]): −0.66%; TRPA1 Pre-incubation (TRPA1 receptor [1]): 21.67%
O=C([O-])C(=O)[O-].[Zn+2] [Zinc Oxalate]	–	–	–	–	TRPA1 Direct addition (TRPA1 receptor [1]): 40.18%; TRPA1 Pre-incubation (TRPA1 receptor [1]): 18.11%
[O]=[Zn] [Zinc Oxide]	–	–	–	–	TRPA1 Direct addition (TRPA1 receptor [1]): −3.73%; TRPA1 Pre-incubation (TRPA1 receptor [1]): 71.09%
O=S(=O)([O-])[O-].[Zn+2] [Zinc Sulfate]	–	–	–	–	TRPA1 Direct addition (TRPA1 receptor [1]): 29.79%; TRPA1 Pre-incubation (TRPA1 receptor [1]): 21.7%
CCCCCC/C=C\CO [cis-2-nonen-1-ol]	–	–	-1.09%	79.2%	–
CC/C=C\CCOC(=O)CCC [cis-3-Hexenyl Butyrate]	–	–	-0.46%	87.9%	–
CC/C=C\CCOC(=O)CCCCC [cis-3-Hexenyl Hexanoate]	–	–	0.08%	106%	–
CC/C=C\CCOC(=O)C/C=C\CC [cis-3-Hexenyl cis-3-Hexenoate, [(Z)-hex-3-enyl] (Z)-hex-3-enoate]	–	–	-1.04%	122%	–
CC/C=C\CCCCCO [cis-6-Nonen-1-ol]	–	–	2.38%	98%	–
CC/C=C\CCCCC=O [cis-6-Nonenal]	–	–	2.76%	74.7%	–
CCCOC(=O)c1ccc(O)cc1 [n-Propyl-4-hydroxybenzoate]	–	–	173%	8.13%	–
COc1cc(C)ccc1C(C)C [thymyl methyl ether]	–	–	-0.16%	108%	–
CCCCCC/C=C/C=C/C=O [trans,trans-2,4-Undecadienal]	–	–	122%	-3.93%	–
CCCC/C=C/C=O [trans-2-Heptenal]	–	–	95.9%	-3.74%	–
CCC/C=C/C=O [trans-2-Hexenal]	–	–	1.62%	103%	–
Methyl Ionone	–	–	–	–	TRPA1 Direct addition (TRPA1 receptor [1]): 38.43%; TRPA1 Pre-incubation (TRPA1 receptor [1]): −1.32%
